In US11208400B2, “Substituted 6-(1H-pyrazol-1-yl)pyrimidin-4-amine derivatives and uses thereof” (Bayer Aktiengesellschaft, priority 2016, dated 2021) one finds IC50 data, which are given here for 18 compounds.

This experiment concerns the target T1, human Npt2a (Homo sapiens, UniProt Q06495).
T1 construct: expressed in transfected cells
T1 sequence (Q06495 1-639): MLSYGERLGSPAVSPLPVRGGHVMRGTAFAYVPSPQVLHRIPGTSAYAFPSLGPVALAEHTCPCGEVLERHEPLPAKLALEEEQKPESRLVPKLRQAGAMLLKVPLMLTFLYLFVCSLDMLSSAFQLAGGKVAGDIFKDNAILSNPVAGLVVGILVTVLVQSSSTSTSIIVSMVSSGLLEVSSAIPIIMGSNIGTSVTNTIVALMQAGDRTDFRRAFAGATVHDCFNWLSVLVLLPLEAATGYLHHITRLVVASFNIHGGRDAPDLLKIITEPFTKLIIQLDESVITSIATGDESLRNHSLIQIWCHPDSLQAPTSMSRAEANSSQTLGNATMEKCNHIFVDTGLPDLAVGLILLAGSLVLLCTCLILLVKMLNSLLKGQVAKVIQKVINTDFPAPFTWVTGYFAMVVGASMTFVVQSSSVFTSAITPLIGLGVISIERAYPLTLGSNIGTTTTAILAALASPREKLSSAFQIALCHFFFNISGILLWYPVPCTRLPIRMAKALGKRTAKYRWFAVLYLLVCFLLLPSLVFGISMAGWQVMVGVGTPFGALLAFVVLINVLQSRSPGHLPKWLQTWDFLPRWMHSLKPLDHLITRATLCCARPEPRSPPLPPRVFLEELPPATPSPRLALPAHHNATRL
As to the kind of experiment: Npt2a activity cell based assay, membrane potential dye, CHO T-REx hNpt2a cells. The conditions noted are these: doxycycline-induced, depolarization by sodium phosphate influx, average or median values if tested more than once. An outline of the steps: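 Cells were doxycycline-induced CHO T-REx hNpt2a, dye-loaded and pretreated 5 min at RT with 1 nM–50 μM compound in Na-free pH 7.4 buffer. IC50 was fit to the post/pre-trigger fluorescence ratio.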
For orientation: IC50 means the concentration at which inhibition is half-maximal. A high value points to lower potency. For the compound `Cc1cc(C)n(-c2cc(Nc3c(C)c(-c4ccc(OC(F)F)cc4)nn3CC3CC3)ncn2)n1` [Example 476, N-{1-(cyclopropylmethyl)-3-[4-(difluoromethoxy)phenyl]-4-methyl-1H-pyrazol-5-yl}-6-(3,5-dimethyl-1H-pyrazol-1-yl)pyrimidin-4-amine], the IC50 was determined as 29 nM.
For `CCOC(=O)c1c(C)nn(-c2cc(Nc3c(C)c(-c4ccc(C#N)cc4)nn3C)ncn2)c1C` [Example 213, ethyl 1-(6-{[3-(4-cyanophenyl)-1,4-dimethyl-1H-pyrazol-5-yl]amino}pyrimidin-4-yl)-3,5-dimethyl-1H-pyrazole-4-carboxylate], inhibition was half-maximal at 2 nM (IC50).
`Cc1cc(C)n(-c2cc(Nc3c(C)c(-c4ccc(F)cc4)nn3CC3CC3)ncn2)n1` [Example 171, N-[1-(cyclopropylmethyl)-3-(4-fluorophenyl)-4-methyl-1H-pyrazol-5-yl]-6-(3,5-dimethyl-1H-pyrazol-1-yl)pyrimidin-4-amine]: half-maximal inhibition (IC50) was put at 12 nM.
`Cc1cc(C(F)F)n(-c2cc(Nc3c(C)c(-c4ccc(C#N)cc4)nn3CC3CC3)ncn2)n1` [Example 142, 4-[1-(cyclopropylmethyl)-5-{(6-[5-(difluoromethyl)-3-methyl-1H-pyrazol-1-yl]pyrimidin-4-yl}amino)-4-methyl-1H-pyrazol-3-yl]benzonitrile] gave an IC50 of 3 nM.
`CCOC(=O)c1c(C)nn(-c2cc(Nc3c(C)c(-c4ccc(C(F)F)cc4)nn3CC3CC3)ncn2)c1C` [Example 454, ethyl 1-[6-({1-(cyclopropylmethyl)-3-[4-(difluoromethyl)phenyl]-4-methyl-1H-pyrazol-5-yl}amino)pyrimidin-4-yl]-3,5-dimethyl-1H-pyrazole-4-carboxylate]: the IC50 came to 11 nM.
The compound `Cc1cc(C(F)F)n(-c2cc(Nc3c(C)c(-c4ccc(OC(F)F)cc4)nn3CC3CC3)ncn2)n1` [Example 475, N-{1-(cyclopropylmethyl)-3-[4-(difluoromethoxy)phenyl]-4-methyl-1H-pyrazol-5-yl}-6-[5-(difluoromethyl)-3-methyl-1H-pyrazol-1-yl]pyrimidin-4-amine] came in with an IC50 of 215 nM.
`COc1c(-c2ccc(C#N)cc2)nn(CC2CC2)c1Nc1cc(-n2nc(C)cc2C)ncn1` [Example 316, 4-[1-(cyclopropylmethyl)-5-{[6-(3,5-dimethyl-1H-pyrazol-1-yl)pyrimidin-4-yl]amino}-4-methoxy-1H-pyrazol-3-yl]benzonitrile] gave an IC50 of 81 nM.
With `Cc1cc(C)n(-c2cc(Nc3c(C)c(-c4ccc(Cl)cc4)nn3C)ncn2)n1` [Example 354, N-[3-(4-chlorophenyl)-1,4-dimethyl-1H-pyrazol-5-yl]-6-(3,5-dimethyl-1H-pyrazol-1-yl)pyrimidin-4-amine], the IC50 turned out to be 135 nM.
Consider `Cc1nn(-c2cc(Nc3c(C)c(-c4ccc(F)cc4)nn3CC3CC3)ncn2)c(C(F)F)c1Cl` [Example 176, 6-[4-chloro-5-(difluoromethyl)-3-methyl-1H-pyrazol-1-yl]-N-[1-(cyclopropylmethyl)-3-(4-fluorophenyl)-4-methyl-1H-pyrazol-5-yl]pyrimidin-4-amine], for which the IC50 is 13 nM.
As to `Cc1cc(C)n(-c2cc(Nc3c(C)c(-c4ccncc4)nn3CC3CC3)ncn2)n1` [Example 350, N-[1-(cyclopropylmethyl)-4-methyl-3-(pyridin-4-yl)-1H-pyrazol-5-yl]-6-(3,5-dimethyl-1H-pyrazol-1-yl)pyrimidin-4-amine], half-maximal inhibition (IC50) was put at 1300 nM.
Consider `CCc1c(Nc2cc(-n3nc(C)cc3C)ncn2)n[nH]c1C1CCCCC1` [Example 28, N-(5-cyclohexyl-4-ethyl-1H-pyrazol-3-yl)-6-(3,5-dimethyl-1H-pyrazol-1-yl)pyrimidin-4-amine], for which the IC50 was 490 nM.
`CCOC(=O)c1c(C)nn(-c2cc(Nc3c(C)c(-c4ccc(C(F)(F)F)cc4)nn3C)ncn2)c1C` [Example 362, ethyl 1-[6-({1,4-dimethyl-3-[4-(trifluoromethyl)phenyl]-1H-pyrazol-5-yl}amino)pyrimidin-4-yl]-3,5-dimethyl-1H-pyrazole-4-carboxylate] gave an IC50 of 220 nM.
In turn, `CCc1c(Nc2cc(-n3nc4c(c3O)CCCC4)ncn2)nn(C)c1-c1ccc(F)cc1` [Example 29, 2-(6-{[4-ethyl-5-(4-fluorophenyl)-1-methyl-1H-pyrazol-3-yl]amino}pyrimidin-4-yl)-4,5,6,7-tetrahydro-2H-indazol-3-ol] registered an IC50 of 1420 nM.
The result for `Cc1cc(C)n(-c2cc(Nc3c(Cl)c(-c4ccc(F)cc4)nn3CC3CC3)ncn2)n1` [Example 187, N-[4-chloro-1-(cyclopropylmethyl)-3-(4-fluorophenyl)-1H-pyrazol-5-yl]-6-(3,5-dimethyl-1H-pyrazol-1-yl)pyrimidin-4-amine] reads 10 nM.
`Cc1nnc(-c2c(C)nn(-c3cc(Nc4c(C)c(-c5ccc(F)cc5)nn4CC4CC4)ncn3)c2C)o1` [Example 372, N-[1-(cyclopropylmethyl)-3-(4-fluorophenyl)-4-methyl-1H-pyrazol-5-yl]-6-[3,5-dimethyl-4-(5-methyl-1,3,4-oxadiazol-2-yl)-1H-pyrazol-1-yl]pyrimidin-4-amine] gave an IC50 of 7 nM.
`CCc1c(Nc2cc(-n3nc(C)c(C(=O)N4CCCC4C)c3C)ncn2)nn(C)c1-c1ccc(F)cc1` (single isomer, unassigned) [Example 106, [1-ent-(6-{[4-ethyl-5-(4-fluorophenyl)-1-methyl-1H-pyrazol-3-yl]amino}pyrimidin-4-yl)-3,5-dimethyl-1H-pyrazol-4-yl](2-methylpyrrolidin-1-yl)methanone] showed an IC50 of 120 nM.
`Cc1c(-c2ccc(C#N)cc2)nn(CC2CC2)c1Nc1cc(-n2nc(C)c3cnccc32)ncn1` [Example 233, 4-[1-(cyclopropylmethyl)-4-methyl-5-{[6-(3-methyl-1H-pyrazolo[4,3-c]pyridin-1-yl)pyrimidin-4-yl]amino}-1H-pyrazol-3-yl]benzonitrile] displayed an IC50 of 29 nM.
The result for `Cc1cc(C)n(-c2cc(Nc3c(C)nn(-c4ccc(C#N)cc4)c3C)ncn2)n1` [Example 199, 4-(4-{[6-(3,5-dimethyl-1H-pyrazol-1-yl)pyrimidin-4-yl]amino}-3,5-dimethyl-1H-pyrazol-1-yl)benzonitrile] reads 36 nM.
